Measured values as given in patent US8075874B2, “Methods for disinfecting and removing smear layer from tooth surfaces” (Dentsply International, Inc., priority 2002, dated 2011).

Experiments:
Enterococcus faecalis [1] = experiment: Minimum inhibitory concentration (serial dilution, turbidity); format: cell-based
Method: In the second test, the minimum inhibitory concentration (MIC) was measured. E. faecalis was cultured overnight and the concentration was adjusted to 0.11 O.D. at 570 nm. The test solutions were serially diluted from 1:2 up to 1:2048 dilutions. One ml of 2× trypticase soy broth (TSB) and the same amount of a test solution were mixed in various tubes. One hundred microliters of the standardized E. faecalis was added into each of the test tubes and were incubated overnight at 37° C. The presence or absence of turbidity was determined the following day.

Enterococcus faecalis [2] = experiment: Zone of inhibition on inoculated TSA plates; format: cell-based; conditions: E. faecalis; for bactericidal effect upon dilution (zone of inhibition): diluted five- or ten-fold
Method: In the first test, the zone of inhibition was measured on plates inoculated with Enterococcus faecalis. An overnight culture of E. faecalis (ATCC 4082) was standardized to 0.11 optical density (O.D.) measured at 570 nm. One hundred microliters of the microorganism was spread onto a trypticase soy agar (TSA) plate with the use of a sterile L-shaped glass rod. One-quarter inch sterile S & S filter paper (Schleicher & Schuell) was placed in each of the four quadrants of the TSA plate. […] Eight replicates were prepared for each of the sample solutions. The plates were incubated overnight at 37° C. for 24 hours and the zones of inhibition were measured in millimeters.

[3] = Removal of smear layer from root end cavity preparations (SEM); set-up: species or system human; conditions: solution left in cavity five minutes
Method: Extracted, human single-rooted teeth were used in this part of the experiment.
The working length of each canal was determined by placing and moving a #15 K file apically in the canal until it exited from the apical foramen.
The access cavities were closed with Cavit. The roots were then wrapped in moist gauze and stored in a closed glass bottle at room temperature and 100% humidity for one week.
Two coats of nail polish were applied to the external surface of each root.
Apical cavity preparations were made in each of the roots. A #1 round bur in a high-speed handpiece with water coolant was used to create a small opening into the gutta-percha filling material.
The roots were then randomly divided into two groups. […] The solution was left in the cavity for five minutes and then rinsed with 10 ml of distilled water. In Group 2, the preparations were rinsed with 5 ml of ADD. This solution was also left in the root end cavities for five minutes and then rinsed with 5 ml of distilled water. After drying with paper points, the roots were split in halves using a slow speed diamond saw (Labut Agar Scientific, Cambridge, England).
Half of each sample was placed into a gluteraldehyde solution for 24 h. […] The presence or absence of smear layer on the root end cavity preparations was evaluated. The erosion of dentinal tubules was also assessed.

[4] = Removal of smear layer from root canal walls (SEM); conditions: extracted human teeth; 5 min contact; ADD group instrumented with 1% sodium hypochlorite as irrigant
Text: Extracted maxillary and mandibular human teeth were used for this study. The working lengths of these teeth were between 21-25 millimeters. The teeth were scaled of any calculus and other surface debris (soft tissue and/or alveolar bone) using hand scalers. After preparing conventional access preparations through the incisal or occlusal surfaces of the test teeth, a K-type file (size 10) was used to determine the working length of each tooth by penetrating the apical foramen and pulling back to the clinical apical foramen. […] The apex of each tooth was enlarged to size 30 files.
After complete cleaning and shaping, the canals were irrigated with 1 ml of NaOCl and a barbed broach wrapped with cotton was taken to the canal terminus and left for five minutes to ensure uniform direct contact of the irrigant with the entire canal. Upon removal of the barbed broach, the canal was irrigated with 4 ml of NaOCl and rinsed with 10 ml of distilled water. Group 2: NSET was performed using 1% sodium hypochlorite as root canal irrigant. […] Upon removal of the barbed broach, the canal was irrigated with 4 ml of ADD and rinsed with 10 ml of distilled water. […] The presence or absence of smear layer at the coronal, middle, and apical portion of each canal was evaluated. The erosion of dentinal tubules was also assessed at different levels of each canal.

[5] = system: root canals infected with whole saliva; experiment: Disinfection of human root canals infected with whole saliva
Text: It will be apparent to those of skill in the art that a solution such as the one described herein (i.e., one that has improved biocompatibility and is effective in a shorter period of time than previously known treatments) is highly desirable, particularly in the health care fields. Studies have also shown that, unlike other previously known dental irrigants, the solution of the present invention maintains the desired antimicrobial effect at dilutions up to 1:200. […] In a further study undertaken to evaluate the antimicrobial properties of the presently described solution, human root canals were infected with whole saliva and then treated with either 5.25% NaOCl or a solution of doxycycline, polysorbate 80, and citric acid. While the NaOCl effectively disinfected only 37 out of 60 teeth, the solution of the present invention disinfected 59 out of 60 teeth. The importance and desirability of such improved antimicrobial properties can be easily appreciated, particularly by those of skill in the art.

[6] = Removal of smear layer from coronal cavity preparations (SEM); conditions: third molars, Class I preparations; solution left 5 minutes
Method: Sound third molars were collected and stored in deionized water. Class I preparations were made following conventionally accepted procedures in the occlusal surfaces of the teeth. The teeth were randomly divided into two groups. […] After this treatment each preparation was rinsed with copious amounts of water to eliminate the residual effect of sodium hypochlorite. Group 2: ADD solution was left in the cavity for 5 minutes. After this treatment each preparation was rinsed with copious amounts of distilled water to eliminate the residual effect of ADD. After irrigation, the crowns were split in half using a diamond saw and constant water spray. Half of each sample was placed into a gluteraldehyde solution for 24 h. The fixed specimens were then rinsed twice by a sodium buffered solution (pH 7.2), treated with osmium tetraoxide for one hour, rinsed with ascending concentrations of ethyl alcohol 30%-100%, and then placed in a dessicator for 24 h. […] The presence or absence of smear layer on the walls of each cavity was evaluated. The erosion of dentinal tubules was also assessed.

[7] = Removal of smear layer from root surfaces of teeth (SEM); conditions: saturated cotton pellet left 5 minutes
Method: The coronal one-third root surfaces of these teeth were curetted following conventionally accepted procedures. The samples were randomly divided into two groups.
After this treatment each root surface was rinsed with copious amounts of distilled water to eliminate the residual effect of sodium hypochlorite.
Group 2: A cotton pellet saturated with ADD solution was left on the root surface preparations for 5 minutes. After this treatment each preparation was rinsed with copious amounts of distilled water to eliminate the residual effect of ADD.
After irrigation, the entire tooth was split in half using a diamond saw and constant water spray. Half of each sample was placed into a gluteraldehyde solution for 24 h. The fixed specimens were then rinsed twice by a sodium buffered solution (pH 7.2), treated with osmium tetraoxide for one hour, rinsed with ascending concentrations of ethyl alcohol 30%-100%, and then placed in a dessicator for 24 h. Finally, each specimen was mounted on a special button, and coated with 25 μm of gold-palladium (Au—Pd) (Wakabayashi et al., 1995). The presence or absence of smear layer on the root surfaces was evaluated. The erosion of dentinal tubules was also assessed.

[8] = Removal of smear layer from prepared crown preparations (SEM); conditions: saturated cotton pellet left 5 minutes
Method: Sound third molars were collected and stored in deionized water. Crown preparations were made following conventionally accepted procedures. The samples were randomly divided into two groups.
After this treatment each preparation was rinsed with copious amounts of distilled water to eliminate the residual effect of sodium hypochlorite.
Group 2: A cotton pellet saturated with ADD solution was left on the crown preparations for 5 minutes. After this treatment each preparation was rinsed with copious amounts of distilled water to eliminate residual ADD.
After irrigation, the crown preparations were split in half using a diamond saw and constant water spray. Half of each sample was placed into a gluteraldehyde solution for 24 h. The fixed specimens were then rinsed twice by a sodium buffered solution (pH 7.2), treated with osmium tetraoxide for one hour, rinsed with ascending concentrations of ethyl alcohol 30%-100%, and then placed in a dessicator for 24 h. Finally, each specimen was mounted on a special button, and coated with 25 μm of gold-palladium (Au—Pd) (Wakabayashi et al., 1995). The presence or absence of smear layer on the walls of each cavity was evaluated. The erosion of dentinal tubules was also assessed.

| Structure (SMILES) | dilution up to which solution is effective (minimum inhibitory concentration test) (Enterococcus faecalis [1]; E. faecalis, overnight at 37° C., turbidity) | dilution limit of antimicrobial / bactericidal effect (Enterococcus faecalis [1]; summary statement in description) | bactericidal effect upon dilution (zone of inhibition) (Enterococcus faecalis [2]) | presence or absence of smear layer on root end cavity preparations [3] | presence or absence of smear layer on root canal walls [4] | teeth disinfected [5] | presence or absence of smear layer on cavity walls [6] | zone of inhibition, undiluted versus diluted (Enterococcus faecalis [2]; undiluted, 1:5, 1:10) | presence or absence of smear layer on root surfaces [7] | presence or absence of smear layer on crown preparations [8] |
| --- | --- | --- | --- | --- | --- | --- | --- | --- | --- | --- |
| O=C(O)CN(CCN(CC(=O)O)CC(=O)O)CC(=O)O [EDTA, ethylenediamine tetraacetic acid] | no antibacterial effects at any dilution level | ineffective in anything other than an undiluted state | no bactericidal properties |  |  |  |  |  |  |  |
| [Na+].[O-]Cl [5.25% NaOCl, sodium hypochlorite] |  |  | some bactericidal effect | presence of smear layer on the surface of all cavity preparations | presence of smear layer on the entire root canal walls of all teeth | 37 out of 60 | presence of smear layer on the walls of all teeth | more effective when undiluted than at 1:5 or 1:10 dilution | presence of smear layer on the surface of all roots | presence of smear layer on the surface of all crowns |
